Source: PubChem BioAssay (NCI)
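The concentration for 50% growth inhibition is given as GI50. TGI denotes the concentration required for complete inhibition of growth.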

Experiments:
Assay in all cases: inhibition of tumour cell growth, NCI panel, 384-well format
786-0 renal = system: 786-0 renal
A498 renal = system: A498 renal
A549 NSCLC = system: A549 NSCLC
ACHN renal = system: ACHN renal
BT-549 breast = system: BT-549 breast
CAKI-1 renal = system: CAKI-1 renal
CCRF-CEM leukemia = system: CCRF-CEM leukemia
COLO 205 colon = system: COLO 205 colon
DU-145 prostate = system: DU-145 prostate
EKVX NSCLC = system: EKVX NSCLC
HCC-2998 colon = system: HCC-2998 colon
HCT-116 colon = system: HCT-116 colon
HCT-15 colon = system: HCT-15 colon
HL-60(TB) leukemia = system: HL-60(TB) leukemia
HOP-62 NSCLC = system: HOP-62 NSCLC
HOP-92 NSCLC = system: HOP-92 NSCLC
HS 578T breast = system: HS 578T breast
HT29 colon = system: HT29 colon
IGROV1 ovarian = system: IGROV1 ovarian
K-562 leukemia = system: K-562 leukemia
KM12 colon = system: KM12 colon
LOX IMVI melanoma = system: LOX IMVI melanoma
M14 melanoma = system: M14 melanoma
MALME-3M melanoma = system: MALME-3M melanoma
MCF7 breast = system: MCF7 breast
MDA-MB-231 breast = system: MDA-MB-231 breast
MDA-MB-435 melanoma = system: MDA-MB-435 melanoma
MDA-MB-468 breast = system: MDA-MB-468 breast
MOLT-4 leukemia = system: MOLT-4 leukemia
NCI-H226 lung = system: NCI-H226 lung
NCI-H23 lung = system: NCI-H23 lung
NCI-H322M lung = system: NCI-H322M lung
NCI-H460 NSCLC = system: NCI-H460 NSCLC
NCI-H522 lung = system: NCI-H522 lung
NCI/ADR-RES ovarian = system: NCI/ADR-RES ovarian
OVCAR-3 ovarian = system: OVCAR-3 ovarian
OVCAR-4 ovarian = system: OVCAR-4 ovarian
OVCAR-5 ovarian = system: OVCAR-5 ovarian
OVCAR-8 ovarian = system: OVCAR-8 ovarian
PC-3 prostate = system: PC-3 prostate
RPMI-8226 leukemia = system: RPMI-8226 leukemia
RXF 393 renal = system: RXF 393 renal
SF-268 CNS = system: SF-268 CNS
SF-295 CNS = system: SF-295 CNS
SF-539 CNS = system: SF-539 CNS
SK-MEL-28 melanoma = system: SK-MEL-28 melanoma
SK-MEL-5 melanoma = system: SK-MEL-5 melanoma
SK-OV-3 ovarian = system: SK-OV-3 ovarian
SN12C renal = system: SN12C renal
SNB-19 CNS = system: SNB-19 CNS
SNB-75 CNS = system: SNB-75 CNS
SW-620 colon = system: SW-620 colon
T-47D breast = system: T-47D breast
TK-10 renal = system: TK-10 renal
U251 glioblastoma = system: U251 glioblastoma
UACC-257 melanoma = system: UACC-257 melanoma
UACC-62 melanoma = system: UACC-62 melanoma
UO-31 renal = system: UO-31 renal

O=C(Nc1ccc(Oc2ccc(F)cc2)cc1)[C@@H]1C[C@@H](Cc2ccc(F)cc2)CN1C(=O)Cn1ccnn1
GI50 ([…]-0 renal): 4.65 µM
TGI (786-0 renal): 16.3 µM
GI50 (A498 renal): 5.24 µM
TGI (A498 renal): 16.5 µM
GI50 (A549 NSCLC): 4.06 µM
TGI (A549 NSCLC): 19.2 µM
GI50 (ACHN renal): 4.88 µM
TGI (ACHN renal): 17.4 µM
GI50 (BT-549 breast): 7.1 µM
TGI (BT-549 breast): 18.7 µM
GI50 (CAKI-1 renal): 12.1 µM
TGI (CAKI-1 renal): 25.1 µM
GI50 (CCRF-CEM leukemia): 2.64 µM
TGI (CCRF-CEM leukemia): 5.92 µM
GI50 (COLO 205 colon): 8.04 µM
TGI (COLO 205 colon): 21.4 µM
GI50 (DU-145 prostate): 10.8 µM
TGI (DU-145 prostate): 26.7 µM
GI50 (EKVX NSCLC): 11 µM
TGI (EKVX NSCLC): 24.9 µM
GI50 (HCC-2998 colon): 4.57 µM
TGI (HCC-2998 colon): 14.6 µM
GI50 (HCT-116 colon): 5.34 µM
TGI (HCT-116 colon): 16.7 µM
GI50 (HCT-15 colon): 6.73 µM
TGI (HCT-15 colon): 21.9 µM
GI50 (HL-60(TB) leukemia): 2.44 µM
TGI (HL-60(TB) leukemia): 4.34 µM
GI50 (HOP-62 NSCLC): 6.4 µM
TGI (HOP-62 NSCLC): 18.2 µM
GI50 (HOP-92 NSCLC): 3.72 µM
TGI (HOP-92 NSCLC): 12.1 µM
GI50 (HS 578T breast): 7.78 µM
TGI (HS 578T breast): 19.6 µM
GI50 (HT29 colon): 3.46 µM
TGI (HT29 colon): 11.7 µM
GI50 (IGROV1 ovarian): 7.92 µM
TGI (IGROV1 ovarian): 20.8 µM
GI50 (K-562 leukemia): 4.7 µM
TGI (K-562 leukemia): 14.9 µM
GI50 (KM12 colon): 8.19 µM
TGI (KM12 colon): 20.8 µM
GI50 (LOX IMVI melanoma): 5.29 µM
TGI (LOX IMVI melanoma): 17.1 µM
GI50 (M14 melanoma): 7.23 µM
TGI (M14 melanoma): 19.8 µM
GI50 (MALME-3M melanoma): 6.92 µM
TGI (MALME-3M melanoma): 19.2 µM
GI50 (MCF7 breast): 4.1 µM
TGI (MCF7 breast): 14.5 µM
GI50 (MDA-MB-231 breast): 13.5 µM
TGI (MDA-MB-231 breast): 27.1 µM
GI50 (MDA-MB-435 melanoma): 13.3 µM
TGI (MDA-MB-435 melanoma): 26.3 µM
GI50 (MDA-MB-468 breast): 6.95 µM
TGI (MDA-MB-468 breast): 18.8 µM
GI50 (MOLT-4 leukemia): 2.02 µM
TGI (MOLT-4 leukemia): 3.78 µM
GI50 (NCI-H226 lung): 9.85 µM
TGI (NCI-H226 lung): 21.7 µM
GI50 (NCI-H23 lung): 15.7 µM
TGI (NCI-H23 lung): 29.9 µM
GI50 (NCI-H322M lung): 14.8 µM
TGI (NCI-H322M lung): 30.1 µM
GI50 (NCI-H460 NSCLC): 5.39 µM
TGI (NCI-H460 NSCLC): 16.8 µM
GI50 (NCI-H522 lung): 6.56 µM
TGI (NCI-H522 lung): 18.8 µM
GI50 (NCI/ADR-RES ovarian): 16.1 µM
TGI (NCI/ADR-RES ovarian): 36.7 µM
GI50 (OVCAR-3 ovarian): 7.5 µM
TGI (OVCAR-3 ovarian): 19.5 µM
GI50 (OVCAR-4 ovarian): 11.9 µM
TGI (OVCAR-4 ovarian): 26.4 µM
GI50 (OVCAR-5 ovarian): 14.7 µM
TGI (OVCAR-5 ovarian): 28.3 µM
GI50 (OVCAR-8 ovarian): 11.1 µM
TGI (OVCAR-8 ovarian): 23.4 µM
GI50 (PC-3 prostate): 4.69 µM
TGI (PC-3 prostate): 15 µM
GI50 (RPMI-8226 leukemia): 3.81 µM
TGI (RPMI-8226 leukemia): 9.88 µM
GI50 (RXF 393 renal): 3.77 µM
TGI (RXF 393 renal): 11.4 µM
GI50 (SF-268 CNS): 2.52 µM
TGI (SF-268 CNS): 7.96 µM
GI50 (SF-295 CNS): 7.16 µM
TGI (SF-295 CNS): 19.5 µM
GI50 (SF-539 CNS): 10.9 µM
TGI (SF-539 CNS): 23 µM
GI50 (SK-MEL-28 melanoma): 15.8 µM
TGI (SK-MEL-28 melanoma): 29.4 µM
GI50 (SK-MEL-5 melanoma): 8.64 µM
TGI (SK-MEL-5 melanoma): 21 µM
GI50 (SK-OV-3 ovarian): 12.7 µM
TGI (SK-OV-3 ovarian): 28.1 µM
GI50 (SN12C renal): 12.9 µM
TGI (SN12C renal): 25.8 µM
GI50 (SNB-19 CNS): 11.6 µM
TGI (SNB-19 CNS): 25.9 µM
GI50 (SNB-75 CNS): 7.44 µM
TGI (SNB-75 CNS): 20.7 µM
GI50 (SW-620 colon): 16.1 µM
TGI (SW-620 colon): 29.8 µM
GI50 (T-47D breast): 3.64 µM
TGI (T-47D breast): 10 µM
GI50 (TK-10 renal): 11.1 µM
TGI (TK-10 renal): 24.2 µM
GI50 (U251 glioblastoma): 4.94 µM
TGI (U251 glioblastoma): 16.3 µM
GI50 (UACC-257 melanoma): 11.6 µM
TGI (UACC-257 melanoma): 23.9 µM
GI50 (UACC-62 melanoma): 13.2 µM
TGI (UACC-62 melanoma): 26.1 µM
GI50 (UO-31 renal): 10.8 µM
TGI (UO-31 renal): 22.9 µM
